Experimental data reported in patent US20230128402A1 (The Trustees of Princeton University, priority 2020, published 2023).

Experiments:
[1] = molecular target: T1, mALDH1a3 (Mus musculus, UniProt Q9JHW9); assay: Aldh1a3 enzyme inhibition assay, recombinant mALDH1a3; assay type: biochemical; conditions: resorufin fluorescence, 20° C.
T1 construct: made in house; host or cells: E. coli BL21-DE3, pET-Aldh1a3
T1 sequence (Q9JHW9 1-512): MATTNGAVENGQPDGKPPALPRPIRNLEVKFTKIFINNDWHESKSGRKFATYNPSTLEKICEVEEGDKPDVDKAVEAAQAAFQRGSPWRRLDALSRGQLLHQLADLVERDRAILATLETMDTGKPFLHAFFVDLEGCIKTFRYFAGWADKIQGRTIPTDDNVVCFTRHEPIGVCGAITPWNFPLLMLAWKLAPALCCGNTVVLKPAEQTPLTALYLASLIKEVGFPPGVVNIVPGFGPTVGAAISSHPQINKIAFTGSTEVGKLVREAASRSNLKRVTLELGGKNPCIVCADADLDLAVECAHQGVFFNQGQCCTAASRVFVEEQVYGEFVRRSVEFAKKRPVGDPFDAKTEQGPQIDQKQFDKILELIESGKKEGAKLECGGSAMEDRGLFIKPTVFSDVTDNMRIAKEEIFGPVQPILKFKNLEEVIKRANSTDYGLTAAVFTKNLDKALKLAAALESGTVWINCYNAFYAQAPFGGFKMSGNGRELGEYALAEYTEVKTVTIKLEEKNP
Source text: (§1) Recombinant enzyme and inhibitor added immediately before assay. Reaction rate measured by resorufin fluorescence.

[2] = molecular target: T2, ALDH1a3 (Homo sapiens, UniProt P47895); assay: Aldh1a3 enzyme inhibition assay, recombinant hALDH1a3; assay type: biochemical; design: made in house; host or cells: E. coli BL21-DE3, pET-Aldh1a3; conditions: resorufin fluorescence, 20° C.
T2 sequence (P47895 1-512): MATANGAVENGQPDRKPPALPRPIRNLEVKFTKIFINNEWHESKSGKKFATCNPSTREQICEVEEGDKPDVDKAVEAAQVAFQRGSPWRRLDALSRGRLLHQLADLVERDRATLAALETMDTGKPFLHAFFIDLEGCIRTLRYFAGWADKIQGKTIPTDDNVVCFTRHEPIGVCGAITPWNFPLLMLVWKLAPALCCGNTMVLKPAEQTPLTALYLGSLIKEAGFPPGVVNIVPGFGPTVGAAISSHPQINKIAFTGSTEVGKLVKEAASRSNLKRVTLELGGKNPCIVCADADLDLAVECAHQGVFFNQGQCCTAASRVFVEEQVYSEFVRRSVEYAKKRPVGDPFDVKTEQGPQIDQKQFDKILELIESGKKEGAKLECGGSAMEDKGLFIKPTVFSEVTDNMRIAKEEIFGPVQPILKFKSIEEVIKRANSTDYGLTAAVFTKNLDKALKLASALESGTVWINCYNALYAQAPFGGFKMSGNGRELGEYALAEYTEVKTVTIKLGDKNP
Source text: as §1

## CC1(C)Cc2cc(Nc3ccc4c(Cl)cccc4n3)ccc2NC1=O [Compound 112, 6-[(5-chloro-2-quinolyl)amino]-3,3-dimethyl-1,4-dihydroquinolin-2-one]
[1]
  IC50: 250 to 1000 nM
[2]
  IC50: 250 to 1000 nM

## CC1(C)Cc2cc(Nc3ccc(Cl)c(Cl)n3)ccc2NC1=O [Compound 97, 6-[(5,6-dichloro-2-pyridyl)amino]-3,3-dimethyl-1,4-dihydroquinolin-2-one]
[1]
  IC50: > 5000 nM
[2]
  IC50: 1000 to 5000 nM

## CC1(C)Cc2cc(Nc3c[nH]c4ccccc4c3=O)ccc2NC1=O [Compound 115, 3,3-dimethyl-6-[(4-oxo-1H-quinolin-3-yl)amino]-1,4-dihydroquinolin-2-one]
[1]
  IC50: > 5000 nM
[2]
  IC50: > 5000 nM

## CCc1cnc(C)cc1C(=O)Nc1cc2c(cc1F)NC(=O)CC2 [Compound 8]
[1]
  IC50: 100 to 250 nM
[2]
  IC50: < 100 nM

## CC1(C)Cc2cc(Nc3ccc4cnccc4n3)ccc2NC1=O [Compound 95, 3,3-dimethyl-6-(1,6-naphthyridin-2-ylamino)-1,4-dihydroquinolin-2-one]
[1]
  IC50: > 5000 nM
[2]
  IC50: > 5000 nM

## CC1(C)Cc2cc(Nc3ccc(Cl)cn3)ccc2NC1=O [Compound 123, 6-[(5-chloro-2-pyridyl)amino]-3,3-dimethyl-1,4-dihydroquinolin-2-one]
[1]
  IC50: > 5000 nM
[2]
  IC50: > 5000 nM

## CCc1cnccc1C(=O)N(C)c1ccc2c(c1)CCC(=O)N2 [Compound 27, 3-ethyl-N-methyl-N-(2-oxo-3,4-dihydro-1H-quinolin-6-yl)pyridine-4-carboxamide]
[1]
  IC50: > 5000 nM
[2]
  IC50: > 5000 nM

## CCc1cnccc1C(=O)Nc1ccc2c(c1)CCC(=O)N2C [Compound 23, 3-ethyl-N-(1-methyl-2-oxo-3,4-dihydroquinolin-6-yl)pyridine-4-carboxamide]
[1]
  IC50: 1000 to 5000 nM
[2]
  IC50: > 5000 nM

## Cc1ccc2ccc(Nc3ccc4c(c3)CCC(=O)N4)nc2c1 [Compound 91, 6-[(7-methyl-2-quinolyl)amino]-3,4-dihydro-1H-quinolin-2-one]
[1]
  IC50: 1000 to 5000 nM
[2]
  IC50: > 5000 nM

## Cc1cccc2nc(Nc3ccc4c(c3)CCC(=O)N4)ccc12 [Compound 87, 6-[(5-methyl-2-quinolyl)amino]-3,4-dihydro-1H-quinolin-2-one]
[1]
  IC50: < 100 nM
[2]
  IC50: 250 to 1000 nM

## CCCc1cnccc1C(=O)Nc1cc2c(cc1F)NC(=O)CC2 [Compound 5]
[1]
  IC50: 250 to 1000 nM
[2]
  IC50: < 100 nM

## CC1(C)Cc2cc(Nc3ccc4ccccc4n3)ccc2NC1=O [Compound 46, 3,3-dimethyl-6-(2-quinolylamino)-1,4-dihydroquinolin-2-one]
[1]
  IC50: 1000 to 5000 nM
[2]
  IC50: 1000 to 5000 nM

## COc1cnccc1C(=O)Nc1cc2c(cc1F)NC(=O)C(C)(C)C2 [Compound 41, N-(7-fluoro-3,3-dimethyl-2-oxo-1,4-dihydroquinolin-6-yl)-3-methoxy-pyridine-4-carboxamide]
[1]
  IC50: > 5000 nM
[2]
  IC50: > 5000 nM

## CC1(C)Cc2cc(Nc3nc4ccccc4o3)ccc2NC1=O [Compound 99, 6-(1,3-benzoxazol-2-ylamino)-3,3-dimethyl-1,4-dihydroquinolin-2-one]
[1]
  IC50: 250 to 1000 nM
[2]
  IC50: 250 to 1000 nM

## CCc1cnccc1C(=O)Nc1cc2c(cc1F)NC(=O)C(C)(C)C2 [Compound 38]
[1]
  IC50: 1000 to 5000 nM
[2]
  IC50: 250 to 1000 nM

## CC1(C)Cc2cc(Nc3ccc4c(n3)CCCC4=O)ccc2NC1=O [Compound 127, 3,3-dimethyl-6-[(5-oxo-7,8-dihydro-6H-quinolin-2-yl)amino]-1,4-dihydroquinolin-2-one]
[1]
  IC50: > 5000 nM
[2]
  IC50: 1000 to 5000 nM

## CC1(C)Cc2cc(Nc3ccc4cnccc4c3)ccc2NC1=O [Compound 103, 6-(6-isoquinolylamino)-3,3-dimethyl-1,4-dihydroquinolin-2-one]
[1]
  IC50: > 5000 nM
[2]
  IC50: > 5000 nM

## O=C1CCc2cc(NC(=O)c3ccncc3CC3CC3)c(F)cc2N1 [Compound 81, 3-(cyclopropylmethyl)-N-(7-fluoro-2-oxo-3,4-dihydro-1H-quinolin-6-yl)pyridine-4-carboxamide]
[1]
  IC50: < 100 nM
[2]
  IC50: < 100 nM
